Source: patent US8980920B2, “Antiviral compounds of three linked aryl moieties to treat diseases such as hepatitis C” (Merck Sharp & Dohme Corp., priority 2009, dated 2015)

What was measured:
HCV replicon 1b c16 = assay: Cell-based HCV replicon assay, genotype 1b c16; conditions: Hepatitis C virus, 72 h; replicon cells, genotype 1b c16, replicon RNA by Taqman on day 3
Method: (§1) To measure cell-based anti-HCV activity of selected compounds of the present invention, the following replicon assay can be used.
Replicon cells are seeded at 5000 cells/well in 96-well collagen I-coated Nunc plates in the presence of the test compound. Various concentrations of test compound, typically in 10 serial 2-fold dilutions, are added to the assay mixture, with the starting concentration ranging from 10 μM to 0.001 μM. The final concentration of DMSO should be about 0.5%, and the final concentration of fetal bovine serum should be about 5%, in the assay media. Cells are harvested on day 3 by the addition of 1× cell lysis buffer (Ambion cat #8721). The replicon RNA level is then measured (using, for example, the real time PCR (Taqman assay)). The amplicon is located in 5B. The PCR primers are: 5B.2F, ATGGACAGGCGCCCTGA (SEQ ID NO. 1); 5B.2R, […] (SEQ ID NO. 2); the probe sequence is FAM-labeled CACGCCATGCGCTGCGG (SEQ ID NO. 3). GAPDH RNA is to be used as endogenous control and is amplified in the same reaction as NS5B (multiplex PCR) using the primers and the VIC-labeled probe recommended by the manufacturer (PE Applied Biosystems). The real-time RT-PCR reactions can be run on an ABI PRISM 7900HT Sequence Detection System using the following program: 48° C. for 30 minutes, 95° C. for 10 minutes, 40 cycles of 95° C. for 15 sec, 60° C. for 1 minute. The ΔCT values (CT5B-CTGAPDH) are then plotted against the concentration of test compound and fitted to the sigmoid dose-response model using XLfit4 (MDL). EC50 is defined as the concentration of inhibitor necessary to achieve ΔCT=1 over the projected baseline; EC90 is defined as the concentration necessary to achieve ΔCT=3.2 over the baseline. Alternatively, to quantitate the absolute amount of replicon RNA, a standard curve can be established by including serially diluted T7 transcripts of replicon RNA in the Taqman assay. […]
(§2) HCV replicon assay data was calculated for various genotypes for selected compounds of the present invention using this method and is provided in the table below.

HCV replicon 1a 1A7 = assay: Cell-based HCV replicon assay, genotype 1a 1A7; conditions: Hepatitis C virus, 72 h; replicon cells, genotype 1a 1A7, replicon RNA by Taqman on day 3
Method: as §1
(§3) Replicon cells are seeded at 5000 cells/well in 96-well collagen I-coated Nunc plates in the presence of the test compound. Various concentrations of test compound, typically in 10 serial 2-fold dilutions, are added to the assay mixture, with the starting concentration ranging from 10 μM to 0.001 μM. The final concentration of DMSO should be about 0.5%, and the final concentration of fetal bovine serum should be about 5%, in the assay media. Cells are harvested on day 3 by the addition of 1× cell lysis buffer (Ambion cat #8721). The replicon RNA level is then measured (using, for example, the real time PCR (Taqman assay)). The amplicon is located in 5B. The PCR primers are: 5B.2F, ATGGACAGGCGCCCTGA (SEQ ID NO. 1); 5B.2R, […] (SEQ ID NO. 2); the probe sequence is FAM-labeled CACGCCATGCGCTGCGG (SEQ ID NO. 3). […] Alternatively, to quantitate the absolute amount of replicon RNA, a standard curve can be established by including serially diluted T7 transcripts of replicon RNA in the Taqman assay. […]
as §2

HCV replicon 2a JFH = assay: Cell-based HCV replicon assay, genotype 2a JFH; conditions: Hepatitis C virus, 72 h, replicon cells, replicon RNA by Taqman on day 3
Method: as §1, §3, §2

HCV replicon 1b Y93H = assay: Cell-based HCV replicon assay, genotype 1b Y93H; conditions: Hepatitis C virus, 72 h, read-out: EC50 1b Y93H
Method: as §1, §3, §2

Structure (SMILES) | EC50 (HCV replicon 1b c16) [nM] | EC50 (HCV replicon 1a 1A7) [nM] | EC50 (HCV replicon 2a JFH) [nM] | EC50 (HCV replicon 1b Y93H) [nM]
CC(C)(C)OC(=O)N1CCC[C@H]1c1ncc(-c2ccc(C#Cc3ccc4nc([C@@H]5CCCN5C(=O)OC(C)(C)C)[nH]c4c3)cc2)[nH]1 [Compound 58] | 251 | – | – | –
COC(=O)N[C@@H](C(=O)N1CCC[C@@H]1c1ncc(-c2ccc(C#Cc3ccc4nc([C@@H]5CCCN5C(=O)[C@H](NC(=O)OC)c5ccccc5)[nH]c4c3)cc2)[nH]1)c1ccccc1 [Compound 57] | 0.001 | 0.41 | 0.019 | 0.5
COC(=O)N[C@H](C(=O)N1CCC[C@@H]1c1ncc(-c2ccc(C#Cc3ccc4nc([C@@H]5CCCN5C(=O)[C@@H](NC(=O)OC)C(C)C)[nH]c4c3)cc2)[nH]1)C(C)C [Compound 56] | 0.016 | 0.3 | 0.3 | 5
